Where two headings read alike, the source gives them in different places.
Assays:
[1] = biological target: T1, PDGF-receptor beta enzyme comprising the tyrosine kinase domain (Homo sapiens, UniProt P09619); test: Inhibition of PDGF-receptor kinase activity (cell-free, PLC1 peptide, 33P Flashplate); assay type: biochemical; details: PDGF-R kinase activity; for inhibition at 10 µM: compound at 10 uM, read-out: Percent Inhibition @ 10 uM; for IC50: read-out: IC50
T1 construct: from amino acid 545 to 1106 of GenBank Access NO: AAA36427
Outline: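 The IC50 is the inhibitor level halving kinase activity relative to inhibitor-free wells, measured as 33P captured on a streptavidin-bound biotin-PLC1 peptide. The reaction ran 60 min at 30 °C in pH 8 Tris buffer with 1 mM DTT, 5 μM ATP and the 545–1106 kinase-domain enzyme.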

LoVo (colon) = test: Anti-cell proliferation in tumor cells (14C-thymidine incorporation), LoVo; assay type: cell-based; details: Homo sapiens, read-out: IC50 on cell proliferation, LoVo
Procedure: (§1) The effect of compounds of the invention on cell proliferation in various tumor cells was tested based on incorporation of ^14C-thymidine into DNA of cells.
(§2) Similar to those described above in 3a, except that different cells, cell growth medium, and growth supplements were used. Human tumor cell lines derived from various human tissue origins (LoVo from colon, H460 from lung, T47D from breast, PC3 from prostate, A375 from melanoma, AsPC1 from pancreas) were obtained from the American Type Culture Collection (ATCC) and cultured under specified conditions required for each cell type, as provided by ATCC. Complete medium was obtained from Cellgro: Iscove's medium with 10% Fetal Bovine Serium (FBS) (Mediatech, Inc., Herndon, Va. 20171, Cat. No. 10-016-CV).
(§3) Tumor cells were seeded at approx. 3000–8000 cells per well in a volume of 100 μl of complete medium. Cells were grown for 24 hours in complete medium, and 1 μl of test compound was serially diluted in 100% DMSO and added to each well. For maximum growth control wells, only 1 μl of 100% DMSO was added. After 24 hours incubation, 20 μl of ^14C-thymidine master mix was added to each well and the ^14C-thymidine master mix was pepared according to the following regimen:
(§4) Cells were incubated for an additional 24 hours at 37° C. in medium containing test compound and ^14C-thymidine. Then, the reaction mixture was discarded and the plate was washed 2 times each with 200 μl PBS. Subsequently, each well on the plate was filled with 200 μl of PBS. The top of the plate was sealed with transparent plate sealer and white plate backing sealers were applied to the bottom of plates. The retained ^14C inside each well was measured using a Packard TopCount.
(§5) In order to test the potency of inhibition of the present compound, IC50 of an individual compound on the inhibition of tumor cell line proliferation was measured using the above procedure. As used herein, said IC50 refers to the concentration of the test compound at which the amount of tumor cell proliferation is reduced by one-half as compared to the maximum growth control wells without the compound.

H460 (lung) = test: Anti-cell proliferation in tumor cells (14C-thymidine incorporation), H460; assay type: cell-based
Procedure: as §1, §2, §3, §4, §5

T47D (breast) = test: Anti-cell proliferation in tumor cells (14C-thymidine incorporation), T47D; assay type: cell-based; details: Homo sapiens, read-out: IC50 on cell proliferation, T47D
Procedure: as §1, §2, §3, §4, §5

PC3 (prostate) = test: Anti-cell proliferation in tumor cells (14C-thymidine incorporation), PC3; assay type: cell-based
Procedure: as §1, §2, §3, §4, §5

A375 (melanoma) = test: Anti-cell proliferation in tumor cells (14C-thymidine incorporation), A375; assay type: cell-based
Procedure: as §1, §2, §3, §4, §5

AsPC1 (pancreas) = test: Anti-cell proliferation in tumor cells (14C-thymidine incorporation), AsPC1; assay type: cell-based
Procedure: as §1, §2, §3, §4, §5

[2] = Homo sapiens, NCI-H460; read-out: IC50 on cell proliferation, H460
[3] = Homo sapiens, PC-3; read-out: IC50 on cell proliferation, PC3
[4] = Homo sapiens, A-375; read-out: IC50 on cell proliferation, A375
[5] = Homo sapiens, ASPC1; read-out: IC50 on cell proliferation, AsPC1

T1 sequence (P09619 545-1106): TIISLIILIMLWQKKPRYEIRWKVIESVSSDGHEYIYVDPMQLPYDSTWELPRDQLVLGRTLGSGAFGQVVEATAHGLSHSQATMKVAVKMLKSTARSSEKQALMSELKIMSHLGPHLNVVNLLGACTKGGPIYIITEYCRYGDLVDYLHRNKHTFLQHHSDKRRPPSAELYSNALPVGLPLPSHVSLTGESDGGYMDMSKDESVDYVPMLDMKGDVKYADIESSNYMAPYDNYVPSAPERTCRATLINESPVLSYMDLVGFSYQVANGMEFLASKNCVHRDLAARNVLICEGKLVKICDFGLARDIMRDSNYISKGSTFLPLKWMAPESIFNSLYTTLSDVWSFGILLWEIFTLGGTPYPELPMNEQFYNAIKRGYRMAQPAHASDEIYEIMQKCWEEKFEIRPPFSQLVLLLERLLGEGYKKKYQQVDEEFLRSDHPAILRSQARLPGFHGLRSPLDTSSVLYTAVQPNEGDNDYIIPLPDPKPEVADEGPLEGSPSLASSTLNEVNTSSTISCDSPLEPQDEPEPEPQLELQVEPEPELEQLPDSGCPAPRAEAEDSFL

IC50 (H460 (lung); Homo sapiens, NCI-H460, read-out: IC50 on cell proliferation, H460) [nM]	IC50 (PC3 (prostate); Homo sapiens, PC-3, read-out: IC50 on cell proliferation, PC3) [nM]	IC50 (A375 (melanoma); Homo sapiens, A-375, read-out: IC50 on cell proliferation, A375) [nM]	IC50 (AsPC1 (pancreas); Homo sapiens, ASPC1, read-out: IC50 on cell proliferation, AsPC1) [nM]	SMILES	inhibition at 10 µM [1] [%]	IC50 [1] [nM]	IC50 (LoVo (colon)) [nM]	IC50 (H460 (lung); [2]) [nM]	IC50 (T47D (breast)) [nM]	IC50 (PC3 (prostate); [3]) [nM]	IC50 (A375 (melanoma); [4]) [nM]	IC50 (AsPC1 (pancreas); [5]) [nM]
–	–	–	–	COC(=O)c1cccc(Nc2[nH]nc3c2Cc2cc(OC)c(OC)cc2-3)c1 [Compound 11, 3-(6,7-Dimethoxy-2,4-dihydro-indeno[1,2-c]pyrazol-3-ylamino)-benzoic acid methyl ester]	97	15.7	2	33	7	14	5	30
–	–	–	–	Cc1ccc2c(c1)-c1n[nH]c(Nc3ccccc3)c1C2 [Compound 22, (7-Methyl-2,4-dihydro-indeno[1,2-c]pyrazol-3-yl)-phenyl-amine]	96	45	13400	9270	381	49500	11600	> 10000
–	–	–	–	COc1ccc2c(c1)-c1n[nH]c(Nc3ccccc3)c1C2 [Compound 39, (7-Methoxy-2,4-dihydro-indeno[1,2-c]pyrazol-3-yl)-phenyl-amine]	92	–	–	–	> 10000	> 10000	> 50000	> 10000
–	–	–	–	COC(=O)c1cccc(Nc2[nH]nc3c2Cc2cc(OCCCN4CCCC4)c(OC)cc2-3)c1 [Compound 157, 3-[7-Methoxy-6-(3-pyrrolidin-1-yl-propoxy)-2,4-dihydro-indeno[1,2-c]pyrazol-3-ylamino]-benzoic acid methyl ester]	85	7	2140	3590	1900	3130	1230	> 10000
10	20	7	592	COc1cc2c(cc1OC)-c1n[nH]c(Nc3cccc(F)c3)c1C2 [Compound 14, (3-Fluoro-phenyl)-(6,7-dimethoxy-2,4-dihydro-indeno[1,2-c]pyrazol-3-yl)-amine]	108	1.7	11	–	32	–	–	–
–	–	–	–	COc1cc2c(cc1OC)-c1n[nH]c(Nc3ccccc3F)c1C2 [Compound 12, (6,7-Dimethoxy-2,4-dihydro-indeno[1,2-c]pyrazol-3-yl)-(2-fluoro-phenyl)-amine]	76	56	11	3	31	13	11	77
–	–	–	–	CN1CCN(c2ccc3c(c2)Cc2c-3n[nH]c2Nc2cccc(Br)c2)CC1 [Compound 122, (3-Bromo-phenyl)-[6-(4-methyl-piperazin-1-yl)-2,4-dihydro-indeno[1,2-c]pyrazol-3-yl]-amine]	70	16.2	3840	14300	10500	6340	14400	> 10000
–	–	–	–	COc1cc2c(cc1OC)-c1n[nH]c(Nc3cccnc3)c1C2 [Compound 30, (6,7-Dimethoxy-2,4-dihydro-indeno[1,2-c]pyrazol-3-yl)-pyridin-3-yl-amine]	107	16	423	290	8200	175	507	> 10000
–	–	–	–	COc1cc2c(cc1OC)-c1c(c(Nc3cccc(F)c3)nn1C(=O)CO)C2 [Compound 432, 1-[3-(3-Fluoro-phenylamino)-6,7-dimethoxy-4H-indeno[1,2-c]pyrazol-1-yl]-2-hydroxy-ethanone]	95.5	38	35	–	6	12	2	40
–	–	–	–	COc1cc2c(cc1OC)-c1n[nH]c(NCc3cc(Cl)ccc3Cl)c1C2 [Compound 330, (2,5-Dichloro-benzyl)-(6,7-dimethoxy-2,4-dihydro-indeno[1,2-c]pyrazol-3-yl)-amine]	100	16.2	3700	1200	355	303	2180	1550
–	–	–	–	COc1cccc(Nc2[nH]nc3c2Cc2cc4c(cc2-3)OCO4)c1 [Compound 97, (2,9-Dihydro-5,7-dioxa-2,3-diaza-cyclopenta[a]-s-indacen-1-yl)-(3-methoxy-phenyl)-amine]	91	54	225	424	622	1680	362	5670
–	–	–	–	COc1cc2c(cc1OC)-c1n[nH]c(NCc3ccccc3)c1C2 [Compound 63, Benzyl-(6,7-dimethoxy-2,4-dihydro-indeno[1,2-c]pyrazol-3-yl)-amine]	94	191	2400	3670	2600	6120	2840	10300

Source: patent US7196110B2, “N-substituted tricyclic 3-aminopyrazoles as inhibitors for the treatment of cell proliferative disorders” (Janssen Phamaceutica N.V., priority 2002, dated 2007)
